In this test the target is T1, human GPR119 (Homo sapiens, UniProt Q8TDV5).
T1 construct: expressed in transfected cells
T1 sequence (Q8TDV5 1-335): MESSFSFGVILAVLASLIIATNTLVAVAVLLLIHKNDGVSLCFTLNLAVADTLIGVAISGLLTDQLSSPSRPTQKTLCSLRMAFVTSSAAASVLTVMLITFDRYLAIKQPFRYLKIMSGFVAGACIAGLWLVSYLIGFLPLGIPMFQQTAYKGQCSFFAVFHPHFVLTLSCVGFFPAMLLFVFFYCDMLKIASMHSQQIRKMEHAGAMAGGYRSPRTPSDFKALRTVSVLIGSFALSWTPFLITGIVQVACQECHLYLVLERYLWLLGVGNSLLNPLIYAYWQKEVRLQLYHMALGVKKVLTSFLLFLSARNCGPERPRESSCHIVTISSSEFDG
The test can be described thus: Functional cellular assay measuring GPR119-mediated cAMP release (HTRF) in HEK-293 cells stably expressing recombinant GPR119. Format: cell-based. As to conditions: cAMP response, cell line expressing human GPR119 (HEK-293), 30 minutes at room temperature. How it is done:
Functional Cellular Assays Measuring GPR119-Mediated cAMP Release
Compounds of the invention, which are agonists of GPR119, were characterized by functional assays measuring the cAMP response of HEK-293 cell lines stably expressing recombinant GPR119 from man, mouse or rat, or by using a hamster cell line HIT-T15 expressing GPR119 endogenously. The cAMP content was determined using a kit based on homogenous time-resolved fluorescence (HTRF) from Cisbio Corp. (cat. no. 62AM4PEC). For preparation, cells were split into T175 culture flasks and grown to near confluency in medium (DMEM/10% FCS for HEK-293 cells, and F-12K medium/10% horse serum/2.5% FCS for HIT-T15 cells, respectively). Medium was then removed and cells washed with PBS lacking calcium and magnesium ions, followed by proteinase treatment with accutase (Sigma-Aldrich, cat. no. A6964). Detached cells were washed and resuspended in assay buffer (1×HBSS; 20 mM HEPES, 0.1% BSA, 2 mM IBMX) and cellular density determined. They were then diluted to 400000 cells/mL and 25 μL-aliquots dispensed to the wells of 96-well plates. For measurement, 25 μL of test compound in assay buffer was added and incubated for 30 minutes at room temperature. After addition of HTRF reagents diluted in lysis buffer, the plates were incubated for 1 hour, followed by measuring the fluorescence ratio at 665 vs. 620 nm. Potency of the agonists was quantified by determining the concentrations that caused 50% of the maximal response/activation (EC50). See Table 3 for exemplary data obtained using the cell line expressing human GPR119.
(In general: In TR-FRET formats the signal depends on donor and acceptor labels being close together.)
In the case of `COC(=O)Cc1nc2ccc(N3CC[C@@H](Oc4ccc(OCC5CC5)nc4)C3=O)cn2n1` [Example 1-07, methyl 2-[6-[(3R)-3-[[6-(cyclopropylmethoxy)-3-pyridyl]oxy]-2-oxo-pyrrolidin-1-yl]-[1,2,4]triazolo[1,5-a]pyridin-2-yl]acetate], the concentration for a half-maximal effect (EC50) – broadly, the midpoint of the concentration-response curve – amounted to 1580 nM. As to `CS(=O)(=O)Cn1nc2ccc(N3CC[C@@H](Oc4ccc(OCC(F)(F)F)nc4)C3=O)cn2c1=O` [Example 1-33, 2-(methylsulfonylmethyl)-6-[(3R)-2-oxo-3-[[6-(2,2,2-trifluoroethoxy)-3-pyridyl]oxy]pyrrolidin-1-yl]-[1,2,4]triazolo[4,3-a]pyridin-3-one], the concentration for a half-maximal effect (EC50) is 113 nM. Consider `O=C1[C@H](Oc2ccc(OCC3CC3)nc2)CCN1c1ccc2nccn2c1` [Example 1-03, (3R)-3-[[6-(cyclopropylmethoxy)-3-pyridyl]oxy]-1-imidazo[1,2-a]pyridin-6-yl-pyrrolidin-2-one], for which the EC50 is 7620 nM. As to `O=C1[C@H](Oc2ccc(OCC3CC3)nc2)CCN1c1ccc2nncn2c1` [Example 1-05, (3R)-3-[[6-(cyclopropylmethoxy)-3-pyridyl]oxy]-1-([1,2,4]triazolo[4,3-a]pyridin-6-yl)pyrrolidin-2-one], the half-maximal effective concentration (EC50) was determined as 7990 nM. Consider `CN(C)C(=O)Cn1nc2c(F)cc(N3CC[C@@H](Oc4ccc(OCC5CC5)nc4)C3=O)cn2c1=O` [Example 2-01, 2-[6-[(3R)-3-[[6-(cyclopropylmethoxy)-3-pyridyl]oxy]-2-oxo-pyrrolidin-1-yl]-8-fluoro-3-oxo-[1,2,4]triazolo[4,3-a]pyridin-2-yl]-N,N-dimethyl-acetamide], for which the EC50 is 126 nM. With `COC(=O)Cn1nc2c(F)cc(N3CC[C@@H](Oc4ccc(OCC5CC5)nc4)C3=O)cn2c1=O` [Example 1-28, methyl 2-[6-[(3R)-3-[[6-(cyclopropylmethoxy)-3-pyridyl]oxy]-2-oxo-pyrrolidin-1-yl]-8-fluoro-3-oxo-[1,2,4]triazolo[4,3-a]pyridin-2-yl]acetate], the half-maximal effective concentration (EC50) turned out to be 70 nM. The same measure for `COC(=O)Cc1cn2cc(N3CC[C@@H](Oc4ccc(OCC5CC5)nc4)C3=O)ccc2n1` [Example 1-20, methyl 2-[6-[(3R)-3-[[6-(cyclopropylmethoxy)-3-pyridyl]oxy]-2-oxo-pyrrolidin-1-yl]imidazo[1,2-a]pyridin-2-yl]acetate]: 9920 nM; for `CN(C)C(=O)Cn1nc2ccc(N3CC[C@@H](Oc4ccc(C(=O)CC5CC5)cc4)C3=O)cn2c1=O` [Example 1-12, 2-[6-[(3R)-3-[4-(2-cyclopropylacetyl)phenoxy]-2-oxo-pyrrolidin-1-yl]-3-oxo-[1,2,4]triazolo[4,3-a]pyridin-2-yl]-N,N-dimethyl-acetamide]: 269 nM. On to `O=C(O)Cn1nc2ccc(N3CC[C@@H](Oc4ccc(OCC5CC5)nc4)C3=O)cn2c1=O` [Example 1-24, 2-[6-[(3R)-3-[[6-(cyclopropylmethoxy)-3-pyridyl]oxy]-2-oxo-pyrrolidin-1-yl]-3-oxo-[1,2,4]triazolo[4,3-a]pyridin-2-yl]acetic acid], for which the EC50 turned out to be 6170 nM. On to `CN(C)C(=O)Cn1cc2cc(N3CC[C@@H](Oc4ccc(OCC(F)(F)F)nc4)C3=O)ccc2n1` [Example 1-34, N,N-dimethyl-2-[5-[(3R)-2-oxo-3-[[6-(2,2,2-trifluoroethoxy)-3-pyridyl]oxy]pyrrolidin-1-yl]indazol-2-yl]acetamide], for which the EC50 is 103 nM. As for `O=C1[C@H](Oc2ccc(Oc3ccc(F)cc3)nc2)CCN1c1cc(F)c2n[nH]c(=O)n2c1` [Example 1-10, 8-fluoro-6-[(3R)-3-[[6-(4-fluorophenoxy)-3-pyridyl]oxy]-2-oxo-pyrrolidin-1-yl]-2H-[1,2,4]triazolo[4,3-a]pyridin-3-one], the figure is 658 nM; as for `COC(=O)Cn1nc2ccc(N3CC[C@@H](Oc4ccc(OCC5CC5)nc4)C3=O)cn2c1=O` [Example 1-26, methyl 2-[6-[(3R)-3-[[6-(cyclopropylmethoxy)-3-pyridyl]oxy]-2-oxo-pyrrolidin-1-yl]-3-oxo-[1,2,4]triazolo[4,3-a]pyridin-2-yl]acetate], 113 nM.

The values above are taken from US9758520B2, “Substituted fused heterocycles as GPR119 modulators for the treatment of diabetes, obesity, dyslipidemia and related disorders” (SANOFI, priority 2014, dated 2017).
